Results as given in patent publication US20240059671A1, “TYROSINE KINASE 2 (TYK2) DEGRADATION COMPOUNDS AND METHODS OF USE” (CULLGEN (SHANGHAI), INC., priority 2020, published 2024).

Target: TYK2 (Homo sapiens, UniProt P29597)
Test: TYK2 protein degradation in NOMO-1 cells by immunoblotting
Type: cell-based
Design: endogenous in cells
Conditions: NOMO-1 cells
Summary of the method: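 Read-out was densitometry of chemiluminescent TYK2 immunoblot bands from RIPA lysates after SDS-PAGE. Before lysis, NOMO-1 cells cultured in RPMI 1640 plus 10% FBS were treated for 16 h at 0.1, 1, 10, 100 and 1000 nM.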

TYK2, sequence (P29597 whole entry): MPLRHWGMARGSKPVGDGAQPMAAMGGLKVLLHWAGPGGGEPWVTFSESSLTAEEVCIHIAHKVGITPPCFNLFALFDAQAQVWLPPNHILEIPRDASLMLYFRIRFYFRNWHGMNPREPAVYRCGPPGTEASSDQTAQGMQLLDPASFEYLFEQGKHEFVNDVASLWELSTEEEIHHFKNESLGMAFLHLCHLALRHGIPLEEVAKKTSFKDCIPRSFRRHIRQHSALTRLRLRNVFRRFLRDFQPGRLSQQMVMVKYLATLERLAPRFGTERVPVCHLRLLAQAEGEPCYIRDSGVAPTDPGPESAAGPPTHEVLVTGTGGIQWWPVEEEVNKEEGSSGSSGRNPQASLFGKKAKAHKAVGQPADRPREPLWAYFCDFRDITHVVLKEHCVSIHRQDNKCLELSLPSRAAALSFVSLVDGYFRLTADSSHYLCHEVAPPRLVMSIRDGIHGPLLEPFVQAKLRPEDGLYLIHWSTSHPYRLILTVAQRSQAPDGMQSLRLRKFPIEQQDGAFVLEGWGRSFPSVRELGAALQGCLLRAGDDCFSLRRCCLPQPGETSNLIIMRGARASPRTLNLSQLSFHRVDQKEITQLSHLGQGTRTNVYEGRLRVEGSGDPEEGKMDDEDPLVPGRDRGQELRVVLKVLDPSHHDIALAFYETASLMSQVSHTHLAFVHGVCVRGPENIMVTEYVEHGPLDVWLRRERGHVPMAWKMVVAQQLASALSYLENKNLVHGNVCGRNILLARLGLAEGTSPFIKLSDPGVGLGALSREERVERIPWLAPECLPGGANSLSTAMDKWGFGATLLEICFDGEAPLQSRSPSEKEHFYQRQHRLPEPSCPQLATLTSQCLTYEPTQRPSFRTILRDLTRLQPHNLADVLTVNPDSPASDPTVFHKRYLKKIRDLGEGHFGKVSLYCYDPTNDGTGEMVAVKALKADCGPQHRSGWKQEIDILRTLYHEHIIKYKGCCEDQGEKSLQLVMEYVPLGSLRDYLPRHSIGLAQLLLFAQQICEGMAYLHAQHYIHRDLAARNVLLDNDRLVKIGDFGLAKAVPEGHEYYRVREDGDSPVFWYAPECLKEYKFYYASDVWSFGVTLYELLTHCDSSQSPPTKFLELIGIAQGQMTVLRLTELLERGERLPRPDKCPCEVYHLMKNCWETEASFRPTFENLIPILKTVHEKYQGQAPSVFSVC

Row | SMILES | TYK2 Degradation (NOMO-1, 10 nM) | TYK2 Degradation (NOMO-1, 100 nM)
1 | CNC(=O)c1nnc(Nc2ccc(C(=O)NCCCCCCC(=O)N[C@H](C(=O)N3C[C@H](O)C[C@H]3C(=O)N[C@@H](C)c3ccc(-c4scnc4C)cc3)C(C)(C)C)cn2)cc1Nc1cccc(-c2ncn(C)n2)c1OC [CPD-142, 6-((5-((7-(((S)-1-((2S,4R)-4-Hydroxy-2-(((S)-1-(4-(4-methylthiazol-5-yl)phenyl)ethyl)carbamoyl)pyrrolidin-1-yl)-3,3-dimethyl-1-oxobutan-2-yl)amino)-7-oxoheptyl)carbamoyl)pyridin-2-yl)amino)-4-((2-methoxy-3-(1-methyl-1H-1,2,4-triazol-3-yl)phenyl)amino)-N-methylpridazine-3-carboxamide] | B (B: <60% TYK2 degradation, and >20% TYK2 degradation) | A (A: ≥60% TYK2 degradation)
2 | CNC(=O)c1nnc(Nc2ccc(C(=O)NCCCCCCCC(=O)N[C@H](C(=O)N3C[C@H](O)C[C@H]3C(=O)N[C@@H](C)c3ccc(-c4scnc4C)cc3)C(C)(C)C)cn2)cc1Nc1cccc(-c2ncn(C)n2)c1OC [CPD-143, 6-((5-((8-(((S)-1-((2S,4R)-4-hydroxy-2-(((S)-1-(4-(4-methylthiazol-5-yl)phenyl)ethyl)carbamoyl)pyrrolidin-1-yl)-3,3-dimethyl-1-oxobutan-2-yl)amino)-8-oxooctyl)carbamoyl)pyridin-2-yl)amino)-4-((2-methoxy-3-(1-methyl-1H-1,2,4-triazol-3-yl)phenyl)amino)-N-methylpyridazine-3-carboxamide] | A (A: ≥60% TYK2 degradation) | A (A: ≥60% TYK2 degradation)
3 | CNC(=O)c1nnc(Nc2ccc(C(=O)NCCCCCCCCC(=O)N[C@H](C(=O)N3C[C@H](O)C[C@H]3C(=O)N[C@@H](C)c3ccc(-c4scnc4C)cc3)C(C)(C)C)cn2)cc1Nc1cccc(-c2ncn(C)n2)c1OC [CPD-144, 6-((5-((9-(((S)-1-((2S,4R)-4-hydroxy-2-(((S)-1-(4-(4-methylthiazol-5-yl)phenyl)ethyl)carbamoyl)pyrrolidin-1-yl)-3,3-dimethyl-1-oxobutan-2-yl)amino)-9-oxononyl)carbamoyl)pyridin-2-yl)amino)-4-((2-methoxy-3-(1-methyl-1H-1,2,4-triazol-3-yl)phenyl)amino)-N-methylpyridazine-3-carboxamide] | A (A: ≥60% TYK2 degradation) | A (A: ≥60% TYK2 degradation)
4 | CNC(=O)c1nnc(Nc2ccc(N3CCN(C4CCN(C(=O)CCC(=O)N[C@H](C(=O)N5C[C@H](O)C[C@H]5C(=O)N[C@@H](C)c5ccc(-c6scnc6C)cc5)C(C)(C)C)CC4)CC3)cn2)cc1Nc1cccc(-c2ncn(C)n2)c1OC [CPD-145, 6-((5-(4-(1-(4-(((S)-1-((2S,4R)-4-Hydroxy-2-(((S)-1-(4-(4-methylthiazol-5-yl)phenyl)ethyl)carbamoyl)pyrrolidin-1-yl)-3,3-dimethyl-1-oxobutan-2-yl)amino)-4-oxobutanoyl)piperidin-4-yl)piperazin-1-yl)pyridin-2-yl)amino)-4-((2-methoxy-3-(1-methyl-1H-1,2,4-triazol-3-yl)phenyl)amino)-N-methylpyridazine-3-carboxamide] | – | B (B: <60% TYK2 degradation, and >20% TYK2 degradation)
5 | CNC(=O)c1nnc(Nc2ccc(N3CCN(C4CCN(C(=O)CCCC(=O)N[C@H](C(=O)N5C[C@H](O)C[C@H]5C(=O)N[C@@H](C)c5ccc(-c6scnc6C)cc5)C(C)(C)C)CC4)CC3)cn2)cc1Nc1cccc(-c2ncn(C)n2)c1OC [CPD-146, 6-((5-(4-(1-(5-(((S)-1-((2S,4R)-4-Hydroxy-2-(((S)-1-(4-(4-methylthiazol-5-yl)phenyl)ethyl)carbamoyl)pyrrolidin-1-yl)-3,3-dimethyl-1-oxobutan-2-yl)amino)-5-oxopentanoyl)piperidin-4-yl)piperazin-1-yl)pyridin-2-yl)amino)-4-((2-methoxy-3-(1-methyl-1H-1,2,4-triazol-3-yl)phenyl)amino)-N-methylpyridazine-3-carboxamide] | B (B: <60% TYK2 degradation, and >20% TYK2 degradation) | A (A: ≥60% TYK2 degradation)
6 | CNC(=O)c1nnc(Nc2ccc(N3CCN(C4CCN(C(=O)CCCCC(=O)N[C@H](C(=O)N5C[C@H](O)C[C@H]5C(=O)N[C@@H](C)c5ccc(-c6scnc6C)cc5)C(C)(C)C)CC4)CC3)cn2)cc1Nc1cccc(-c2ncn(C)n2)c1OC [CPD-147, 6-((5-(4-(1-(6-(((S)-1-((2S,4R)-4-Hydroxy-2-(((S)-1-(4-(4-methylthiazol-5-yl)phenyl)ethyl)carbamoyl)pyrrolidin-1-yl)-3,3-dimethyl-1-oxobutan-2-yl)amino)-6-oxohexanoyl)piperidin-4-yl)piperazin-1-yl)pyridin-2-yl)amino)-4-((2-methoxy-3-(1-methyl-1H-1,2,4-triazol-3-yl)phenyl)amino)-N-methylpyridazine-3-carboxamide] | B (B: <60% TYK2 degradation, and >20% TYK2 degradation) | A (A: ≥60% TYK2 degradation)
7 | CNC(=O)c1nnc(Nc2ccc(N3CCN(C4CCN(C(=O)CCCCCC(=O)N[C@H](C(=O)N5C[C@H](O)C[C@H]5C(=O)N[C@@H](C)c5ccc(-c6scnc6C)cc5)C(C)(C)C)CC4)CC3)cn2)cc1Nc1cccc(-c2ncn(C)n2)c1OC [CPD-148, 6-((5-(4-(1-(7-(((S)-1-((2S,4R)-4-hydroxy-2-(((S)-1-(4-(4-methylthiazol-5-yl)phenyl)ethyl)carbamoyl)pyrrolidin-1-yl)-3,3-dimethyl-1-oxobutan-2-yl)amino)-7-oxoheptanoyl)piperidin-4-yl)piperazin-1-yl)pyridin-2-yl)amino)-4-((2-methoxy-3-(1-methyl-1H-1,2,4-triazol-3-yl)phenyl)amino)-N-methylpyridazine-3-carboxamide] | A (A: ≥60% TYK2 degradation) | A (A: ≥60% TYK2 degradation)
8 | CNC(=O)c1nnc(Nc2ccc(N3CCN(C4CCN(C(=O)CCCCCCC(=O)N[C@H](C(=O)N5C[C@H](O)C[C@H]5C(=O)N[C@@H](C)c5ccc(-c6scnc6C)cc5)C(C)(C)C)CC4)CC3)cn2)cc1Nc1cccc(-c2ncn(C)n2)c1OC [CPD-149, 6-((5-(4-(1-(8-(((S)-1-((2S,4R)-4-Hydroxy-2-(((S)-1-(4-(4-methylthiazol-5-yl)phenyl)ethyl)carbamoyl)pyrrolidin-1-yl)-3,3-dimethyl-1-oxobutan-2-yl)amino)-8-oxooctanoyl)piperidin-4-yl)piperazin-1-yl)pyridin-2-yl)amino)-4-((2-methoxy-3-(1-methyl-1H-1,2,4-triazol-3-yl)phenyl)amino)-N-methylpyridazine-3-carboxamide] | – | A (A: ≥60% TYK2 degradation)
9 | CNC(=O)c1nnc(Nc2ccc(N3CCN(C4CCN(C(=O)CCCCCCCC(=O)N[C@H](C(=O)N5C[C@H](O)C[C@H]5C(=O)N[C@@H](C)c5ccc(-c6scnc6C)cc5)C(C)(C)C)CC4)CC3)cn2)cc1Nc1cccc(-c2ncn(C)n2)c1OC [CPD-150, 6-((5-(4-(1-(9-(((S)-1-((2S,4R)-4-hydroxy-2-(((S)-1-(4-(4-methylthiazol-5-yl)phenyl)ethyl)carbamoyl)pyrrolidin-1-yl)-3,3-dimethyl-1-oxobutan-2-yl)amino)-9-oxononanoyl)piperidin-4-yl)piperazin-1-yl)pyridin-2-yl)amino)-4-((2-methoxy-3-(1-methyl-1H-1,2,4-triazol-3-yl)phenyl)amino)-N-methylpyridazine-3-carboxamide] | A (A: ≥60% TYK2 degradation) | A (A: ≥60% TYK2 degradation)
10 | CNC(=O)c1nnc(Nc2ccc(N3CCN(C4CCN(C(=O)CCCCCCCCC(=O)N[C@H](C(=O)N5C[C@H](O)C[C@H]5C(=O)N[C@@H](C)c5ccc(-c6scnc6C)cc5)C(C)(C)C)CC4)CC3)cn2)cc1Nc1cccc(-c2ncn(C)n2)c1OC [CPD-151, 6-((5-(4-(1-(10-(((S)-1-((2S,4R)-4-hydroxy-2-(((S)-1-(4-(4-methylthiazol-5-yl)phenyl)ethyl)carbamoyl)pyrrolidin-1-yl)-3,3-dimethyl-1-oxobutan-2-yl)amino)-10-oxodecanoyl)piperidin-4-yl)piperazin-1-yl)pyridin-2-yl)amino)-4-((2-methoxy-3-(1-methyl-1H-1,2,4-triazol-3-yl)phenyl)amino)-N-methylpyridazine-3-carboxamide] | A (A: ≥60% TYK2 degradation) | A (A: ≥60% TYK2 degradation)
11 | CNC(=O)c1nnc(Nc2ccc(C(=O)NCCNc3cccc4c3C(=O)N(C3CCC(=O)NC3=O)C4=O)cn2)cc1Nc1cccc(-c2ncn(C)n2)c1OC (centres unmarked) [CPD-152, 6-((5-((2-((2-(2,6-Dioxopiperidin-3-yl)-1,3-dioxoisoindolin-4-yl)amino)ethyl)carbamoyl)pyridin-2-yl)amino)-4-((2-methoxy-3-(1-methyl-1H-1,2,4-triazol-3-yl)phenyl)amino)-N-methylpyridazine-3-carboxamide] | – | A (A: ≥60% TYK2 degradation)
12 | CNC(=O)c1nnc(Nc2ccc(C(=O)NCCCNc3cccc4c3C(=O)N(C3CCC(=O)NC3=O)C4=O)cn2)cc1Nc1cccc(-c2ncn(C)n2)c1OC (centres unmarked) [CPD-153, 6-((5-((3-((2-(2,6-Dioxopiperidin-3-yl)-1,3-dioxoisoindolin-4-yl)amino)propyl)carbamoyl)pyridin-2-yl)amino)-4-((2-methoxy-3-(1-methyl-1H-1,2,4-triazol-3-yl)phenyl)amino)-N-methylpyridazine-3-carboxamide] | – | C (C: ≤20% TYK2 degradation)
